Results reported in patent US20240368120A1 (Terns Pharmaceuticals, Inc., priority 2023, published 2024).

What was measured:
human GLP-1R receptor = biological target: T1, human GLP-1R receptor (Homo sapiens, UniProt P43220); assay: GLP-1R low expression cell assay (cAMP TR-FRET, CHO-K1_hGLP-1Rlow_clone10 cells); format: cell-based; details: for EC50: cAMP TR-FRET, 30 min at 25° C.; for Emax: maximum activation relative to control GLP-1 peptide agonist
T1 construct: expressed in transfected cells
Procedure, shortened: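 CHO-K1 cells stably expressing low surface human GLP-1R (clone10), 1,000 cells/well, exposed to 10-point 3-fold compound dilutions for 30 min at 25 °C. cAMP measured by TR-FRET (Eu-cAMP tracer/ULight-anti-cAMP, 15 min). EC50 from Hill fit of duplicate percent activation relative to a parallel GLP-1 control agonist.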

[1] = Metabolic stability in rat hepatocytes; format: in vitro ADME; details: cryopreserved hepatocytes, 1 μM, 1×10^6 cells/mL, 0-240 min; for half-life at 1 μM: read-out: Rat t1/2
Protocol: (§1) Test compounds were incubated in rat and human hepatocytes and stability was assessed from the substrate […] approach. Test compounds were dissolved in dimethyl sulfoxide (DMSO) to create a 10 mM Stock, and then further diluted to create a 1000× Working Stock of 1 mM with DMSO in 96-well plates for test compounds and the positive control (midazolam). Vials containing cryopreserved hepatocytes were removed from the liquid nitrogen tank and immediately immersed in a 37° C. water bath. The vials were shaken gently until the contents had thawed and were then immediately emptied into 48 mL of pre-warmed HT Medium in a 50 mL conical tube. Cells remaining in the vial were resuspended with 1.0 mL of pre-warmed HT Medium and added to the conical tube. The tube was capped and then gently inverted several times to resuspend the hepatocytes. The cell suspension was centrifuged at 50×g at room temperature for 5 minutes and the supernatant discarded. The cell pellet was loosened by gently swirling the centrifuge tube and was re-suspended in 4 mL of warm Dulbecco's Modified Eagle medium (DMEM). Cell density was determined by a cell counter by Nexcelom, and DMEM medium was added to obtain a target density of 1×10^6 cells/mL. The assay was carried out in 96-well microtiter plates. Test Compounds were incubated at 1 μM with 1×10^6 cells/mL hepatocytes in DMEM for 0, 30, 60, 120 and 240 minutes. The incubation was carried out with gentle shaking at 37° C. under a humid atmosphere of 95% air/5% CO2. The volume of the incubation mixture was 37 μL with a final 0.1% DMSO. At each of the time points, the incubation was stopped by adding 150 μL quenching solution (100% acetonitrile, 0.1% formic acid containing bucetin as an internal standard for positive ESI mode). Subsequently, the mixtures were vortexed for 20 min and centrifuged at 4,000 RPM at 10° C. The supernatant (80 μL) was transferred to a clean 96-well plate and analyzed by LC-MS/MS. Midazolam at 1 μM with a final 0.1% DMSO was included as a positive control to verify assay performance. The percent parent remaining, intrinsic and predicted hepatic clearance and t1/2 were calculated. All samples were analyzed by LC-MS/MS using an AB Sciex API 4000 instrument, coupled to a Shimadzu LC-20AD LC Pump system. Separation was achieved using a Waters Atlantis T3 dC18 reverse phase HPLC column (20 mm×2.1 mm) at a flow rate of 0.5 mL/min. The mobile phase consisted of 0.1% formic acid in water (solvent A) and 0.1% formic acid in 100% acetonitrile (solvent B). Elution conditions are detailed below.
(§2) The ion optics of each test compound were optimized for their declustering potential (DP), […] (CE), collision-cell exit potential (CXP) and used in a selected ion monitoring experiment in the positive ion mode. The peak area ratio of each test compound to internal standard was then evaluated for stability. The extent of metabolism was calculated based on the disappearance of the test compound, compared to its initial concentration. The initial rates of clearance of the test compound were calculated using the linear regression plot of semi-log % remaining of the compound versus time. The elimination rate constant (k) of the linear regression plot was then used to determine t1/2 and the intrinsic clearance (CLint) using the following formula, where Chepatocyte (million cells/mL) is the cell density of the incubation:
(§3) The predicted hepatic clearance (CLhep) was calculated using the well stirred method with the following formula with CLint (in vivo) normalized based on liver weight: […]
(§4) The relevant physiological parameters of liver weight, blood flow, and hepatocellularity for various species are listed below: […]

rat hepatocytes = assay: Metabolic stability in rat hepatocytes; format: in vitro ADME; details: predicted hepatic clearance, well stirred method
Protocol: as §1, §2, §3, §4

[2] = Metabolic stability in human hepatocytes; format: in vitro ADME; details: cryopreserved hepatocytes, 1 μM, 1×10^6 cells/mL, 0-240 min; for half-life at 1 μM: read-out: Human t1/2
Protocol: as §1, §2, §3, §4

human hepatocytes = assay: Metabolic stability in human hepatocytes; format: in vitro ADME; details: predicted hepatic clearance, well stirred method
Protocol: as §1, §2, §3, §4

T1 sequence (P43220 24-463): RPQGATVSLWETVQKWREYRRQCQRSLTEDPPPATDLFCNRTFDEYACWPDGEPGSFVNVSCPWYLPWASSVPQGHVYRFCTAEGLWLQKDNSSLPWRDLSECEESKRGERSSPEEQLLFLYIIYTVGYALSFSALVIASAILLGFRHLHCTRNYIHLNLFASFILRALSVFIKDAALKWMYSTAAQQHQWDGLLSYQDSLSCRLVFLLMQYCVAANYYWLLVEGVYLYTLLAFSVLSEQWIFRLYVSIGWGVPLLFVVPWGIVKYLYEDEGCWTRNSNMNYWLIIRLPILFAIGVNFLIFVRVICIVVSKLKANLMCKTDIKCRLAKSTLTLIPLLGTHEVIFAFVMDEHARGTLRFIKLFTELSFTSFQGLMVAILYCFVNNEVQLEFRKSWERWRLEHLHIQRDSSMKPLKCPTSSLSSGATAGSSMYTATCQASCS

Compound	EC50 (human GLP-1R receptor) [nM]	Emax (human GLP-1R receptor) [%]	CLint scaled at 1 μM [1] [mL/min/kg]	half-life at 1 μM [1] [h]	Rat Clhep predicted (rat hepatocytes) [mL/min/kg]	CLint scaled at 1 μM [2] [mL/min/kg]	half-life at 1 μM [2] [h]	Human Clhep predicted (human hepatocytes) [mL/min/kg]
COc1cc(C(=O)O)cc2c1nc(CN1CCC(c3cccc(OCc4ccc(C#N)cc4F)n3)CC1)n2C[C@@H]1CCO1 [Compound 8, (S)-2-((4-(6-((4-Cyano-2-fluorobenzyl)oxy)pyridin-2-yl)piperidin-1-yl)methyl)-4-methoxy-1-(oxetan-2-ylmethyl)-1H-benzo[d]imidazole-6-carboxylic acid]	< 10	> 85	27.4 ± 1.77	2.02 ± 0.131	18.31 ± 1.71	6.18 ± 0.7	0.0743 ± 0.0112	4.76 ± 0.68
COc1cc(C(=O)O)cc2c1nc(CN1CCC(c3cccc(OCc4ccc(C#N)cc4F)n3)CC1)n2Cc1cncs1 [Compound 1, 2-((4-(6-((4-Cyano-2-fluorobenzyl)oxy)pyridin-2-yl)piperidin-1-yl)methyl)-4-methoxy-1-(thiazol-5-ylmethyl)-1H-benzo[d]imidazole-6-carboxylic acid]	< 10	> 85	68.7 ± 3.5	0.806 ± 0.041	30.61 ± 3.29	14.2 ± 0.97	2.83 ± 0.193	8.42 ± 0.92
